Measurements taken from PubChem BioAssay AID330 (DTP/NCI, 2004).
Values joined by “and” are separate entries in the source; they are usually repeats but may differ in a detail not shown here. Equal values may be shown once. Toxic doses and inconclusive results are not listed. The calls were made as follows: active = survival T/C of 150% or more; inactive = T/C below 125% in these data.

Test system: P388 leukemia ip, CD2F1 mice, survival T/C
Assay: NCI In Vivo Anticancer Drug Screen. Data for tumor model P388 Leukemia (intraperitoneal) in CD2F1 (CDF1) mice
Conditions: endpoint: median survival time, higher = longer survival
In short: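 Mice carrying the transplanted tumor received test compound or vehicle. Survival was recorded in each group, and the value is the treated-group measurement divided by that of the vehicle-treated control group.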

[1] = dose: 60.0 mg/kg/injection, schedule: Q01DX005 (ip), vehicle: saline with Tween-80
[2] = dose: 120.0 mg/kg/injection, schedule: Q01DX005 (ip), vehicle: saline with Tween-80
[3] = dose: 240.0 mg/kg/injection, schedule: Q01DX005 (ip), vehicle: saline with Tween-80
[4] = dose: 50.0 mg/kg/injection, schedule: Q01DX009 (ip), vehicle: saline with Tween-80
[5] = dose: 100.0 mg/kg/injection, schedule: Q01DX009 (ip), vehicle: saline with Tween-80
[6] = dose: 200.0 mg/kg/injection, schedule: Q01DX009 (ip), vehicle: saline with Tween-80
[7] = dose: 60.0 mg/kg/injection, schedule: Q01DX005 (ip), vehicle: saline
[8] = dose: 120.0 mg/kg/injection, schedule: Q01DX005 (ip), vehicle: saline
[9] = dose: 240.0 mg/kg/injection, schedule: Q01DX005 (ip), vehicle: saline
[10] = dose: 50.0 mg/kg/injection, schedule: Q01DX005 (ip), vehicle: Klucel (hydroxypropylcellulose) (HPC)
[11] = dose: 100.0 mg/kg/injection, schedule: Q01DX005 (ip), vehicle: Klucel (hydroxypropylcellulose) (HPC)
[12] = dose: 100.0 mg/kg/injection, schedule: Q04DX003 (ip), vehicle: Klucel (hydroxypropylcellulose) (HPC)
[13] = dose: 200.0 mg/kg/injection, schedule: Q04DX003 (ip), vehicle: Klucel (hydroxypropylcellulose) (HPC)
[14] = dose: 400.0 mg/kg/injection, schedule: Q04DX003 (ip), vehicle: Klucel (hydroxypropylcellulose) (HPC)

Measured: T/C

Cc1n[nH]c(=O)c2[nH]c3ccccc3c12
inactive: [1] 104 % of control | [2] 97 % of control | [3] 96 % of control

CN(C)CC1(c2ccccc2)C(=O)N(C)C(=O)N(C2CCCCC2)C1=O (stereo unspecified)
inactive: [4] 100 % of control | [5] 105 % of control | [6] 115 % of control

C[CH2][Sn]1([CH2]C)[O]C(=O)CCCCC(=O)[O]1
inactive: dose: 12.5 mg/kg/injection, schedule: Q04DX003 (ip), vehicle: saline 115 % of control

Clc1ncccc1-n1cccc1/C=N\N=C/c1cccn1-c1cccnc1Cl
inactive: [1] 97 % of control | [2] 89 % of control

C(=C\c1ccccc1)/C[P+](c1ccccc1)(c1ccccc1)c1ccccc1
inactive: dose: 0.62 mg/kg/injection, schedule: Q01DX009 (ip), vehicle: saline 90 % of control | dose: 0.63 mg/kg/injection, schedule: Q01DX009 (ip), vehicle: saline with Tween-80 100 % of control | dose: 1.25 mg/kg/injection, schedule: Q01DX009 (ip), vehicle: saline with Tween-80 122 % of control | dose: 1.25 mg/kg/injection, schedule: Q01DX009 (ip), vehicle: saline 93 % of control | dose: 2.5 mg/kg/injection, schedule: Q01DX009 (ip), vehicle: saline with Tween-80 109 % of control | dose: 2.5 mg/kg/injection, schedule: Q01DX009 (ip), vehicle: saline 90 % of control | dose: 5.0 mg/kg/injection, schedule: Q01DX009 (ip), vehicle: saline 98 % of control

CCCCCC12OCC(C)(C)N1O2 (stereo unspecified)
inactive: [7] 100 % of control | [8] 109 % of control | [9] 103 % of control

Cc1oc2c(c(=O)c1C)C1CCC(C2)N1C (stereo unspecified)
inactive: [10] 106 % of control | [11] 97 % of control

OCCN(CCO)Cc1nc2ccc(Cl)cc2[nH]1
inactive: dose: 50.0 mg/kg/injection, schedule: Q01DX005 (ip), vehicle: saline 98 % of control | dose: 100.0 mg/kg/injection, schedule: Q01DX005 (ip), vehicle: saline 91 % of control | dose: 200.0 mg/kg/injection, schedule: Q01DX005 (ip), vehicle: saline 95 % of control

COC(=O)[C@H]1[C@H]2C[C@@H]3c4[nH]c5cc(OC)ccc5c4CCN3C[C@H]2C[C@@H](OC(=O)c2cccc(N(C)C)c2)[C@@H]1OC
inactive: dose: 12.5 mg/kg/injection, schedule: Q01DX005 (ip), vehicle: Klucel (hydroxypropylcellulose) (HPC) 95 % of control | dose: 25.0 mg/kg/injection, schedule: Q01DX005 (ip), vehicle: Klucel (hydroxypropylcellulose) (HPC) 94 % of control | [10] 116 % of control | [11] 86 % of control

O=C1C(=O)N(c2ccccc2)C(=O)N1CCN1C(=O)C(=O)N(c2ccccc2)C1=O
inactive: dose: 3.75 mg/kg/injection, schedule: Q01DX005 (ip), vehicle: saline with Tween-80 100 % of control | dose: 7.5 mg/kg/injection, schedule: Q01DX005 (ip), vehicle: saline with Tween-80 90 % of control | dose: 15.0 mg/kg/injection, schedule: Q01DX005 (ip), vehicle: saline with Tween-80 95 % of control

BrCC1(CBr)COC1
inactive: dose: 50.0 mg/kg/injection, schedule: Q01DX001 (ip), vehicle: Klucel (hydroxypropylcellulose) (HPC) 95 % of control | dose: 100.0 mg/kg/injection, schedule: Q01DX001 (ip), vehicle: Klucel (hydroxypropylcellulose) (HPC) 107 % of control | dose: 200.0 mg/kg/injection, schedule: Q01DX001 (ip), vehicle: Klucel (hydroxypropylcellulose) (HPC) 100 % of control

C[N+](C)(C)NP(=O)(N[N+](C)(C)C)Oc1ccccc1
inactive: [7] 100 % of control and 110 % of control and 93 % of control | [8] 103 % of control and 110 % of control (2×) | [9] 100 % of control and 104 % of control | dose: 480.0 mg/kg/injection, schedule: Q01DX005 (ip), vehicle: saline 104 % of control and 95 % of control

CSCOC/C=C(\C)CCC=C(C)C
inactive: [4] 98 % of control | [5] 100 % of control | [6] 114 % of control

CCCCCCC(C(=O)OCC)P(=O)(OCC)OCC (stereo unspecified)
inactive: dose: 18.75 mg/kg/injection, schedule: Q01DX009 (ip), vehicle: saline sonified 90 % of control | dose: 37.5 mg/kg/injection, schedule: Q01DX009 (ip), vehicle: saline sonified 95 % of control | dose: 75.0 mg/kg/injection, schedule: Q01DX009 (ip), vehicle: saline sonified 100 % of control

O=C1COCC(=O)OCCOCCSCCOCCO1
inactive: [12] 102 % of control | [13] 102 % of control | [14] 100 % of control

O=C1CCCCC(=O)Nc2ccc3nc4ccccc4c(c3c2)SCCCCCCCCSc2c3ccccc3nc3ccc(cc23)N1
inactive: [1] 101 % of control | [2] 110 % of control | [3] 91 % of control

CCOC(=O)NC(NC(=O)OCC)c1ccc(Cl)cc1
inactive: dose: 100.0 mg/kg/injection, schedule: Q04DX003 (ip), vehicle: saline 99 % of control | dose: 200.0 mg/kg/injection, schedule: Q04DX003 (ip), vehicle: saline 94 % of control | dose: 400.0 mg/kg/injection, schedule: Q04DX003 (ip), vehicle: saline 107 % of control

Cc1n[nH]c(=O)[nH]c1=O
inactive: [12] 100 % of control | [13] 100 % of control | [14] 90 % of control

CCN1C[C@]2(COC)[C@H](O)C[C@H](OC)[C@]34C1[C@H]([C@H](OC)[C@H]23)[C@]1(OC(C)=O)[C@H]2[C@@H](OC(=O)c3ccccc3)[C@](O)(C[C@H]24)[C@@H](OC)[C@@H]1O
inactive: dose: 0.01 mg/kg/injection, schedule: Q01DX009 (ip), vehicle: saline 113 % of control and 88 % of control

O=C1C=CC(=O)C=C1 (tested in a mixture with another compound)
inactive: dose: 1.0 mg/kg/injection, schedule: Q01DX009 (ip), vehicle: saline sonified 100 % of control | dose: 2.0 mg/kg/injection, schedule: Q01DX009 (ip), vehicle: saline sonified 109 % of control | dose: 3.0 mg/kg/injection, schedule: Q01DX009 (ip), vehicle: saline sonified 100 % of control | dose: 6.0 mg/kg/injection, schedule: Q01DX009 (ip), vehicle: saline sonified 100 % of control

CCCCCCCC#CC1(CCCC)Sc2ccccc2N1C (stereo unspecified)
inactive: [1] 105 % of control | [2] 110 % of control | [3] 113 % of control

O=C1OC(=O)c2ncccc21
inactive: dose: 6.25 mg/kg/injection, schedule: Q01DX009 (ip), vehicle: saline with Tween-80 101 % of control | dose: 12.5 mg/kg/injection, schedule: Q01DX009 (ip), vehicle: saline with Tween-80 96 % of control | dose: 25.0 mg/kg/injection, schedule: Q01DX009 (ip), vehicle: saline with Tween-80 101 % of control | [4] 111 % of control

Fc1ccc(NC(=S)NC2CC2)c(F)c1
inactive: [4] 104 % of control | [5] 104 % of control

CCOC(=O)/N=C(/NC(=O)OCC)N1CCN(c2ccnc3cc(Cl)ccc23)CC1
inactive: dose: 50.0 mg/kg/injection, schedule: Q01DX005 (ip), vehicle: saline with Tween-80 98 % of control | dose: 100.0 mg/kg/injection, schedule: Q01DX005 (ip), vehicle: saline with Tween-80 97 % of control | dose: 200.0 mg/kg/injection, schedule: Q01DX005 (ip), vehicle: saline with Tween-80 91 % of control

COc1ccc(-n2c(CSc3ccc(Cl)cc3)n[nH]c2=S)cc1
inactive: [1] 104 % of control | [2] 96 % of control | [3] 95 % of control

CCCCCCCCCCCCCCCCOc1ccccc1CNc1cc(Cl)ccc1Cl
inactive: [5] 100 % of control | dose: 100.0 mg/kg/injection, schedule: Q04DX003 (ip), vehicle: saline with Tween-80 100 % of control | [6] 91 % of control | dose: 200.0 mg/kg/injection, schedule: Q04DX003 (ip), vehicle: saline with Tween-80 100 % of control | dose: 400.0 mg/kg/injection, schedule: Q01DX009 (ip), vehicle: saline with Tween-80 100 % of control | dose: 400.0 mg/kg/injection, schedule: Q04DX003 (ip), vehicle: saline with Tween-80 86 % of control

O=C1C(Cl)=C(NCCO)C(=O)c2ccccc21
inactive: dose: 25.0 mg/kg/injection, schedule: Q01DX009 (ip), vehicle: Klucel (hydroxypropylcellulose) (HPC) 101 % of control | dose: 50.0 mg/kg/injection, schedule: Q01DX009 (ip), vehicle: Klucel (hydroxypropylcellulose) (HPC) 106 % of control | dose: 100.0 mg/kg/injection, schedule: Q01DX009 (ip), vehicle: Klucel (hydroxypropylcellulose) (HPC) 112 % of control | dose: 200.0 mg/kg/injection, schedule: Q01DX009 (ip), vehicle: Klucel (hydroxypropylcellulose) (HPC) 102 % of control
